Legend:
Type in all cases: in vivo
[1] = tested on: Rhipicephalus microplus larvae (strain Parkhurst, resistant against synthetic pyrethroids); experiment: Rhipicephalus (Boophilus) microplus in-vitro contact test, larval cattle tick; conditions: 5 μg/cm^2 (=500 g/ha), after 48 hours, read-out: efficacy (larvae dead or moribund)
Method: Rhipicephalus (Boophilus) Microplus—In-Vitro Contact Tests Larval Cattle Tick (Strain Parkhurst, Resistant Against Synthetic Pyrethroids)
(§1) 9 mg compound is solved in 1 mL acetone and diluted with acetone to the desired concentration. 250 μL of the test solution is filled in 25 mL glass test tubes and homogeneously distributed on the inner walls by rotation and tilting on a shaking device (2 h at 30 rpm). With a compound concentration of 900 ppm, an inner surface of 44.7 cm^2 and a homogeneous distribution, a dose of 5 μg/cm^2 is achieved.
After the solvent has evaporated, each test tube is filled with 20-50 cattle tick larvae (Rhipicephalus microplus), closed with a perforated lid and incubated in a horizontal position at 85% relative humidity and 27° C. in an incubator. After 48 hours efficacy is determined. The larvae are patted on the ground of the tubes and negative geotactic behavior is recorded.
An efficacy of 100% means all larvae are dead or moribund; 0% means no larvae are dead or moribund.

[2] = tested on: adult cat fleas (Ctenocephalides felis); experiment: Ctenocephalides felis in-vitro contact test, adult cat flea; conditions: 5 μg/cm^2 (=500 g/ha), after 48 hours
Method: Ctenocephalides felis—In-Vitro Contact Tests Adult Cat Flea
as §1
After the solvent has evaporated, each test tube is filled with 5-10 adult cat fleas (Ctenocephalides felis), closed with a perforated lid and incubated in a lying position at room temperature and relative humidity. After 48 hours efficacy is determined. The fleas are patted on the ground of the tubes and are incubated on a heating plate at 45-50° C. for at most 5 minutes. Immotile or uncoordinated moving fleas, which are not able to escape the heat by climbing upwards, are marked as dead or moribund.
An efficacy of 100% means all fleas are dead or moribund; 0% means no fleas are dead or moribund.

[3] = tested on: larvae of the banded cucumber beetle (Diabrotica balteata); experiment: Diabrotica balteata spray test; conditions: 168 h, 100 g/ha (=32 μg/well), wheat seeds, after 7 days, read-out: efficacy (seedling growth)
Summary of the method: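 Efficacy in % was read 7 days after infesting with 10-20 larvae per unit. Before infestation, 1-day-germinated wheat seedlings (5 per well) were sprayed with the active ingredient, formulated in acetone and dimethylformamide plus emulsifier and diluted with water containing emulsifier.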

[4] = tested on: fall armyworm larvae (Spodoptera frugiperda); experiment: Spodoptera frugiperda spray test (maize leaf sections); conditions: 168 h
Summary of the method: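 Percent kill of Spodoptera frugiperda caterpillars read at day 7. Larvae placed on dried Zea mays leaf pieces previously sprayed with test preparation, made from acetone plus DMF and diluted with emulsifier-containing water (1000 ppm).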

[5] = tested on: adult engorged female ticks (Rhipicephalus microplus); experiment: Rhipicephalus (Boophilus) microplus injection test; conditions: 168 h, 4 μg/animal, egg deposition after 7 days, read-out: efficacy (infertile eggs)
Method: Rhipicephalus (Boophilus) Microplus—Injection Test
(§2) Solvent: dimethyl sulfoxide
To produce a suitable preparation of active compound, 10 mg of active compound are dissolved in 0.5 mL solvent, and the concentrate is diluted with solvent to the desired concentration.
Five adult engorged female ticks (Rhipicephalus microplus) are injected with 1 μL compound solution into the abdomen. The ticks are transferred into replica plates and incubated in a climate chamber.
After 7 days egg deposition of fertile eggs is monitored. Eggs where fertility is not visible are stored in a climate chamber till hatching after about 42 days. An efficacy of 100% means all eggs are infertile; 0% means all eggs are fertile.

[6] = tested on: adult unfed cat fleas (Ctenocephalides felis); experiment: Ctenocephalides felis oral test; conditions: 48 h
Method: Ctenocephalides felis—Oral Test
as §2
To produce a suitable preparation of active compound, 10 mg of active compound are dissolved in 0.5 mL solvent, and the concentrate is diluted with cattle blood to the desired concentration.
Approximately 20 adult unfed cat fleas (Ctenocephalides felis) are placed in flea chambers. The blood chamber, sealed with parafilm on the bottom, are filled with cattle blood supplied with compound solution and placed on the gauze covered top of the flea chamber, so that the fleas are able to suck the blood. The blood chamber is heated to 37° C. whereas the flea chamber is kept at room temperature.
After 2 days mortality in % is determined. 100% means all the fleas have been killed; 0% means none of the fleas have been killed.

[7] = tested on: green peach aphid (Myzus persicae); experiment: Myzus persicae oral test; conditions: 120 h
Method: Myzus persicae—oral test • Solvent: 100 parts by weight acetone
To produce a suitable preparation of active compound, 1 part by weight of active compound is mixed with the stated amount of solvent, and the concentrate is diluted with water to the desired concentration. 50 μL compound solution is filled in microtiter plates and 150 μL IPL41 insect medium (33%+15% sugar) is added to obtain a total volume of 200 μL per well. Afterwards the plates are sealed with parafilm through which a mixed population of the green peach aphid (Myzus persicae) can suck on the compound preparation.
(§3) After 5 days mortality in % is determined. 100% means all aphids have been killed and 0% means none of the aphids have been killed.

[8] = tested on: adult mosquitoes Aedes aegypti strain MONHEIM; experiment: Aedes aegypti test (AEDSAE surface treatment & contact assay); conditions: 24 hours after contact, read-out: efficacy (mortality); for mortality at 4 mg/m2: surface concentration 4 mg/m^2, 30 min exposure; for mortality at 20 mg/m2: surface concentration 20 mg/m^2, 30 min exposure
Method: Aedes aegypti test (AEDSAE surface treatment & contact assay) • Solvent: Aceton+2000 ppm rapeseed oil methyl ester (RME)
(§4) In order to produce a sufficient, active ingredient containing solution it is necessary to solve the test compound in the solvent-mix (acetone at 2 mg/ml/RME 2000 ppm). This solution is pipetted onto a glazed tile and after evaporation of the acetone, adult mosquitoes of the species Aedes aegypti strain MONHEIM are placed onto the dried surface. The exposure time is 30 minutes.
(§5) Mortality in percent (%) is determined 24 hours after contact of the insects to the treated surface. 100% mortality means that all tested insects are dead, whereas 0% means that no insect died.

[9] = tested on: adult flies Musca domestica strain WHO-N; experiment: Musca domestica test (MUSCDO surface treatment & contact assay); conditions: 24 hours after contact, read-out: efficacy (mortality); for mortality at 20 mg/m2: surface concentration 20 mg/m^2, 30 min exposure; for mortality at 4 mg/m2: surface concentration 4 mg/m^2, 30 min exposure
Method: Musca domestica Test (MUSCDO Surface Treatment & Contact Assay) • Solvent: Aceton+2000 ppm rapeseed oil methyl ester (RME)
as §4, with “flies” for “mosquitoes”, “Musca domestica” for “Aedes aegypti”, “WHO-N” for “MONHEIM”
as §5

[10] = tested on: green peach aphid (Myzus persicae); experiment: Myzus persicae spray test; conditions: foliar, 120 h, Chinese cabbage leaf disks, after 5 days
Method: Myzus persicae—Spray Test • Solvent: 78.0 parts by weight acetone • 1.5 parts by weight dimethylformamide • Emulsifier: alkylarylpolyglycol ether
(§6) To produce a suitable preparation of active compound, 1 part by weight of active compound is mixed with the stated amount of solvents and is diluted with water, containing an emulsifier concentration of 1000 ppm, to the desired concentration. Further test concentrations are prepared by dilution with emulsifier containing water.
Chinese cabbage (Brassica pekinensis) leaf disks infected with all instars of the green peach aphid (Myzus persicae), are sprayed with a preparation of the active ingredient of the desired concentration.
as §3

[11] = tested on: larvae of the southern green stink bug (Nezara viridula); experiment: Nezara viridula spray test; conditions: in Hordeum vulgare, 96 h
Method: Nezara viridula—Spray Test • Solvent: 78.0 parts by weight of acetone • 1.5 parts by weight of dimethylformamide • Emulsifier: alkylarylpolyglycol ether
as §6, with “solvent,” for “solvents”, “and the concentrate” for “and”
Barley plants (Hordeum vulgare) are sprayed with a test solution containing the desired concentration of the active ingredient and are infested with larvae of the southern green stink bug (Nezara viridula).
After 4 days mortality in % is determined. 100% means all the stink bugs have been killed; 0% means none of the stink bugs have been killed.

SMILES	pest or weed control at 5 µg/cm2 [1]	efficacy (fleas dead or moribund) [2]	pest or weed control at 32 µg/disc, 100 g/ha [3]	mortality at 100 g/ha [4]	pest or weed control at 0.004 mg [5]	mortality at 100 ppm [6]	mortality at 4 ppm [7]	mortality at 4 mg/m2 [8]	mortality at 20 mg/m2 [8]	mortality at 20 mg/m2 [9]	mortality at 100 g/ha [10]	mortality at 4 mg/m2 [9]	mortality at 500 g/ha [11]	mortality at 100 g/ha [11]
CC(NC(=O)c1cc(Cl)cc(OC(F)(F)F)c1)c1ncnn1-c1ncc(C#N)s1 (stereo not shown) [I-28]	100%	100%	100%	100%										
CC(NC(=O)c1cc(C(F)F)cc(C(F)F)c1)c1ncnn1-c1ncc(C#N)s1 (stereo not shown) [I-33]	90%	80%	100%	100%	100%	100%	100%	80 to 100%	80 to 100%	80 to 100%				
CC(NC(=O)c1cc(OC(F)F)cc(C2CC2)c1)c1ncnn1-c1ncc(C#N)s1 (stereo not shown) [I-35]	100%		100%	100%	100%	100%	100%				90%			
CC(NC(=O)c1cc(OC(F)(F)F)cc(S(C)(=O)=O)c1)c1ncnn1-c1ncc(C#N)s1 (stereo not shown) [I-37]		80%	100%	100%	100%	100%	100%							
C[C@H](NC(=O)c1cc(Br)cc(C(C)(F)F)c1)c1ncnn1-c1ncc(C#N)s1 [I-47]	90%		100%	100%				80 to 100%	80 to 100%	80 to 100%	90%	90 to 100%		
C[C@H](NC(=O)c1cc(Cl)cc(C2(C#N)CC2)c1)c1ncnn1-c1ncc(C#N)s1 [I-52]			100%	100%					80 to 100%	80 to 100%	100%	90 to 100%	100%	
Cc1nc([C@H](C)NC(=O)c2cc(Br)cc(C#N)c2)n(-c2ncc(C(=O)N(C)C)s2)n1 [I-70]	70%	100%												
Cc1nc([C@H](C)NC(=O)c2cc(Br)cc(Br)c2)n(-c2ncc(C(=O)N(C)C)s2)n1 [I-71]	100%	100%	100%											
Cc1nc([C@H](C)NC(=O)c2cc(Br)cc(C#N)c2)n(-c2ncc(C(=O)N(C)CC#N)s2)n1 [I-75]	90%	90%	100%				100%							
Cc1nc([C@H](C)NC(=O)c2cc(Cl)cc(I)c2)n(-c2ncc(C(=O)N(C)C)s2)n1 [I-76]	100%	80%		100%										
CC(NC(=O)c1cc(C(F)(F)F)cc(S(C)(=O)=O)c1)c1ncnn1-c1ncc(C#N)s1 (stereo not shown) [I-82]	90%	80%	80%	100%	100%	100%	100%							90%
Cc1nc([C@H](C)NC(=O)c2cc(C(F)(F)F)cc(S(C)(=O)=O)c2)n(-c2ncc(C(=O)N(C)C)s2)n1 [I-83]		80%			100%	100%	100%							
Cc1nc([C@H](C)NC(=O)c2cc(C(F)(F)F)cc(C(F)(F)F)c2)n(-c2ncc(C#N)s2)n1 [I-90]			100%	100%				80 to 100%		80 to 100%	90%	90 to 100%		
C[C@H](NC(=O)c1cc(Br)cc(C(C)(C)F)c1)c1ncnn1-c1ncc(C#N)s1 [I-99]			100%	100%				80 to 100%	80 to 100%	80 to 100%	100%	90 to 100%	100%	100%
Cc1nc([C@H](C)NC(=O)c2cc(Br)cc(OC(F)(F)F)c2)n(-c2ncc(C(=O)N(C)CC3CC3)s2)n1 [I-124]	100%	100%	100%	100%									100%	100%
Cc1nc([C@H](C)NC(=O)c2cc(Br)cc(OC(F)(F)F)c2)n(-c2ncc(C(=O)N(C)C(C)C)s2)n1 [I-126]	100%	80%	100%	100%										

From patent US20230065953A1, “NOVEL HETEROARYL-TRIAZOLE COMPOUNDS AS PESTICIDES” (Bayer Aktiengesellschaft, priority 2019, published 2023)
